Laboratory results published in the NIST ThermoML archive (doi:10.1016/j.jct.2018.12.008).

Experiments:
[1] = mn = molality of the nth substance listed, in mol/kg; details: 100 kPa, Liquid; for viscosity: Falling or rolling sphere viscometry; for electrical conductivity: Frequency=0.003 MHz, Alternating current cell with electrodes; for mass density: Vibrating tube method
[2] = 100 kPa, Liquid, Falling or rolling sphere viscometry

CCCC[n+]1ccc(C)cc1.[Br-] [1-butyl-4-methylpyridinium bromide] + O
[1]
Details | electrical conductivity, 288.15 K [S/m] | electrical conductivity, 298.15 K [S/m] | electrical conductivity, 308.15 K [S/m] | mass density, 288.15 K [kg/m3] | mass density, 298.15 K [kg/m3] | mass density, 308.15 K [kg/m3] | viscosity, 288.15 K [mPa·s] | viscosity, 298.15 K [mPa·s] | viscosity, 308.15 K [mPa·s]
m1 = 0.0011 | – | – | – | 999.126 | 997.066 | 994.057 | 1.135 | 0.8895 | 0.7239
m1 = 0.0018 | – | – | – | 999.138 | 997.081 | 994.066 | 1.137 | 0.8911 | 0.7267
m1 = 0.0021 | 0.0186 | 0.023 | 0.0278 | 999.139 | 997.093 | 994.069 | 1.137 | 0.891 | 0.727
m1 = 0.0036 | – | – | – | 999.163 | 997.131 | 994.087 | 1.14 | 0.894 | 0.7317
m1 = 0.0043 | 0.0358 | 0.0444 | 0.054 | 999.177 | 997.148 | 994.099 | 1.141 | 0.895 | 0.734
m1 = 0.0065 | 0.0536 | 0.0671 | 0.0809 | 999.217 | 997.205 | 994.13 | 1.146 | 0.9 | 0.742

CCCCCC[n+]1ccc(C)cc1.[Br-] [1-hexyl-4-methylpyridinium bromide] + O
[1]
Details | electrical conductivity, 288.15 K [S/m] | electrical conductivity, 298.15 K [S/m] | electrical conductivity, 308.15 K [S/m] | mass density, 288.15 K [kg/m3] | mass density, 298.15 K [kg/m3] | mass density, 308.15 K [kg/m3] | viscosity, 288.15 K [mPa·s] | viscosity, 298.15 K [mPa·s] | viscosity, 308.15 K [mPa·s]
m1 = 0.0011 | – | – | – | 999.106 | 997.049 | 994.045 | 1.134 | 0.8886 | 0.721
m1 = 0.0018 | – | – | – | 999.113 | 997.053 | 994.051 | 1.135 | 0.8893 | 0.7216
m1 = 0.0021 | 0.0177 | 0.022 | 0.0266 | 999.119 | 997.057 | 994.054 | 1.135 | 0.889 | 0.722
m1 = 0.0036 | – | – | – | 999.129 | 997.069 | 994.067 | 1.136 | 0.8907 | 0.7231
m1 = 0.0043 | 0.0345 | 0.0431 | 0.0522 | 999.138 | 997.073 | 994.072 | 1.136 | 0.891 | 0.724
m1 = 0.0065 | 0.0512 | 0.0635 | 0.077 | 999.156 | 997.088 | 994.09 | 1.138 | 0.893 | 0.725

CCCCCCCC[n+]1ccc(C)cc1.[Br-] [1-octyl-4-methylpyridinium bromide] + O
[1]
Details | electrical conductivity, 288.15 K [S/m] | electrical conductivity, 298.15 K [S/m] | electrical conductivity, 308.15 K [S/m] | mass density, 288.15 K [kg/m3] | mass density, 298.15 K [kg/m3] | mass density, 308.15 K [kg/m3] | viscosity, 288.15 K [mPa·s] | viscosity, 298.15 K [mPa·s] | viscosity, 308.15 K [mPa·s]
m1 = 0.0011 | – | – | – | 999.141 | 997.088 | 994.07 | 1.134 | 0.8878 | 0.7215
m1 = 0.0018 | – | – | – | 999.186 | 997.125 | 994.101 | 1.135 | 0.8882 | 0.7225
m1 = 0.0021 | 0.0176 | 0.0219 | 0.0265 | 999.196 | 997.135 | 994.115 | 1.136 | 0.891 | 0.727
m1 = 0.0036 | – | – | – | 999.266 | 997.199 | 994.174 | 1.136 | 0.8892 | 0.7255
m1 = 0.0043 | 0.0344 | 0.042 | 0.0517 | 999.3 | 997.233 | 994.42 | 1.138 | 0.892 | 0.731
m1 = 0.0065 | 0.051 | 0.0634 | 0.076 | 999.402 | 997.329 | 994.283 | 1.139 | 0.893 | 0.734

O [water]
[2]
Details | viscosity [mPa·s]
288.15 K | 1.133
298.15 K | 0.89
308.15 K | 0.719

O [water] + CCCCCCCC[n+]1ccc(C)cc1.[Br-]
[1], m2 = 0
Details | electrical conductivity [S/m] | viscosity [mPa·s]
288.15 K | 0.000101 | 1.133
298.15 K | 0.00015 | 0.89
308.15 K | 0.000216 | 0.719

O [water] + CCCCCC[n+]1ccc(C)cc1.[Br-]
[1], m2 = 0
Details | electrical conductivity [S/m] | viscosity [mPa·s]
288.15 K | 0.000101 | 1.133
298.15 K | 0.00015 | 0.89
308.15 K | 0.000216 | 0.719

O [water] + CCCC[n+]1ccc(C)cc1.[Br-]
[1], m2 = 0
Details | electrical conductivity [S/m] | viscosity [mPa·s]
288.15 K | 0.000101 | 1.133
298.15 K | 0.00015 | 0.89
308.15 K | 0.000216 | 0.719
